The record followed here is US9193720B2, “Pyridin-3-yl acetic acid derivatives as inhibitors of human immunodeficiency virus replication” (priority 2014, dated 2015).

pEC50: −log10 of the molar value.

The subject of this assay is NL-RLuc virus. Briefly: Inhibition of HIV Replication (NL-RLuc luciferase reporter virus in MT-2 cells). In kind it is cell-based. The following applies: Human immunodeficiency virus 1, MT2, 120 h. The source says: Inhibition of HIV Replication:
A recombinant NL-RLuc proviral clone was constructed in which a section of the nef gene from NL4-3 was replaced with the Renilla Luciferase gene. This virus is fully infectious and can undergo multiple cycles of replication in cell culture. In addition, the luciferous reporter provides a simple and easy method for quantitating the extent of virus growth and consequently, the antiviral activity of test compounds. The plasmid pNLRLuc contains the proviral NL-Rluc DNA cloned into pUC18 at the PvuII site. The NL-RLuc virus was prepared by transfection of 293T cells with the plasmid pNLRLuc. Transfections were performed using the LipofectAMINE PLUS kit from Invitrogen (Carlsbad, Calif.) according to the manufacturer and the virus generated was titered in MT-2 cells. For susceptibility analyses, the titrated virus was used to infect MT-2 cells in the presence of compound, and after 5 days of incubation, cells were processed and quantitated for virus growth by the amount of expressed luciferase. Assay media was RPMI 1640 supplemented with 10% heat inactivated fetal bovine serum (FBS), 100 units/ml penicillin G/100 units/ml streptomycin, 10 mM HEPES buffer pH 7.55 and 2 mM L-glutamine. The results from at least 2 experiments were used to calculate the EC50 values. Luciferase was quantitated using the Dual Luciferase kit from Promega (Madison, Wis.). Susceptibility of viruses to compounds was determined by incubation in the presence of serial dilutions of the compound. The 50% effective concentration (EC50) was calculated by using the exponential form of the median effect equation where (Fa)=1/[1+(ED50/drug conc.)^m] (Johnson V A, Byington R T. Infectivity Assay. In Techniques in HIV Research. ed. Aldovini A, Walker B D. 71-76. New York: Stockton Press. 1990).
A general note: A reporter such as luciferase makes a cellular process visible.
For orientation: pEC50 means the EC50 on a negative log10 scale, so that one unit is a factor of ten. High values mean a low EC50, low ones a high EC50. `Cc1nc(C)c([C@H](OC(C)(C)C)C(=O)O)c(N2CCC(C)(C)CC2)c1-c1ccc(OC(C)Cc2ccc(F)cc2)cc1` (single isomer, unassigned) [Example 21] showed a pEC50 of 7.85.

Turning to `Cc1nc(C)c([C@H](OC(C)(C)C)C(=O)O)c(N2CCC(C)(C)CC2)c1-c1ccc(Oc2ccccc2)cc1` [Example 1, (S)-2-(tert-butoxy)-2-(4-(4,4-dimethylpiperidin-1-yl)-2,6-dimethyl-5-(4-phenoxyphenyl)pyridin-3-yl)acetic acid], the pEC50 was 7.43.

As to `Cc1nc(C)c([C@H](OC(C)(C)C)C(=O)O)c(N2CCC(C)(C)CC2)c1-c1ccc(OCc2ccc(F)cc2)cc1` [Example 2, (S)-2-(tert-butoxy)-2-(4-(4,4-dimethylpiperidin-1-yl)-5-(4-((4-fluorobenzyl)oxy)phenyl)-2,6-dimethylpyridin-3-yl)acetic acid], the pEC50 is 7.92.

In the case of `Cc1nc(C)c([C@H](OC(C)(C)C)C(=O)O)c(N2CCC(C)(C)CC2)c1-c1ccc(OCc2ccccc2)nc1` [Example 3, (S)-2-(6′-(benzyloxy)-4-(4,4-dimethylpiperidin-1-yl)-2,6-dimethyl-[3,3′-bipyridin]-5-yl)-2-(tert-butoxy)acetic acid], the pEC50 is 7.70.

In turn, `Cc1nc(C)c([C@H](OC(C)(C)C)C(=O)O)c(N2CCC(C)(C)CC2)c1-c1ccc(OCc2ccccc2)c(F)c1` [Example 4, (S)-2-(5-(4-(benzyloxy)-3-fluorophenyl)-4-(4,4-dimethylpiperidin-1-yl)-2,6-dimethylpyridin-3-yl)-2-(tert-butoxy)acetic acid] gave a pEC50 of 7.92.

Consider `Cc1nc(C)c([C@H](OC(C)(C)C)C(=O)O)c(N2CCC(C)(C)CC2)c1-c1ccc(OCc2ccccc2)cc1` [Example 5, (S)-2-(5-(4-(benzyloxy)phenyl)-4-(4,4-dimethylpiperidin-1-yl)-2,6-dimethylpyridin-3-yl)-2-(tert-butoxy)acetic acid], for which the negative logarithm of the EC50 (pEC50) is 7.96.

Consider `COc1ccccc1COc1ccc(-c2c(C)nc(C)c([C@H](OC(C)(C)C)C(=O)O)c2N2CCC(C)(C)CC2)cc1` [Example 6, (S)-2-(tert-butoxy)-2-(4-(4,4-dimethylpiperidin-1-yl)-5-(4-((2-methoxybenzyl)oxy)phenyl)-2,6-dimethylpyridin-3-yl)acetic acid], for which the pEC50 is 7.70.

On to `Cc1nc(C)c([C@H](OC(C)(C)C)C(=O)O)c(N2CCC(C)(C)CC2)c1-c1ccc(OCc2cccc(F)c2)cc1` [Example 7, (S)-2-(tert-butoxy)-2-(4-(4,4-dimethylpiperidin-1-yl)-5-(4-((3-fluorobenzyl)oxy)phenyl)-2,6-dimethylpyridin-3-yl)acetic acid], for which the pEC50 was 8.05.

Turning to `COc1ccc(COc2ccc(-c3c(C)nc(C)c([C@H](OC(C)(C)C)C(=O)O)c3N3CCC(C)(C)CC3)cc2)cc1` [Example 8, (S)-2-(tert-butoxy)-2-(4-(4,4-dimethylpiperidin-1-yl)-5-(4-((4-methoxybenzyl)oxy)phenyl)-2,6-dimethylpyridin-3-yl)acetic acid], the pEC50 was 7.96.

As for `Cc1nc(C)c([C@H](OC(C)(C)C)C(=O)O)c(N2CCC(C)(C)CC2)c1-c1ccc(OCc2ccc(Cl)cc2)cc1` [Example 9, (S)-2-(tert-butoxy)-2-(5-(4-((4-chlorobenzyl)oxy)phenyl)-4-(4,4-dimethylpiperidin-1-yl)-2,6-dimethylpyridin-3-yl)acetic acid], the pEC50 was 8.05.

Compound `CCOc1ccc(-c2c(C)nc(C)c([C@H](OC(C)(C)C)C(=O)O)c2N2CCC(C)(C)CC2)cc1` [Example 10, (S)-2-(tert-butoxy)-2-(4-(4,4-dimethylpiperidin-1-yl)-5-(4-ethoxyphenyl)-2,6-dimethylpyridin-3-yl)acetic acid] gave a pEC50 of 7.57.

On to `Cc1nc(C)c([C@H](OC(C)(C)C)C(=O)O)c(N2CCC(C)(C)CC2)c1-c1ccc(OCCc2ccc(F)cc2)cc1` [Example 11, (S)-2-(tert-butoxy)-2-(4-(4,4-dimethylpiperidin-1-yl)-5-(4-(4-fluorophenethoxy)phenyl)-2,6-dimethylpyridin-3-yl)acetic acid], for which the pEC50 is 8.40. Against the preceding compound, the pEC50 is 0.83 log units higher.

In turn, `Cc1cc(CCOc2ccc(-c3c(C)nc(C)c([C@H](OC(C)(C)C)C(=O)O)c3N3CCC(C)(C)CC3)cc2)ccc1F` [Example 12, (S)-2-(tert-butoxy)-2-(4-(4,4-dimethylpiperidin-1-yl)-5-(4-(4-fluoro-3-methylphenethoxy)phenyl)-2,6-dimethylpyridin-3-yl)acetic acid] gave a pEC50 of 8.30.

Regarding `Cc1nc(C)c([C@H](OC(C)(C)C)C(=O)O)c(N2CCC(C)(C)CC2)c1-c1ccc(OCCCc2ccc(F)cc2)cc1` [Example 13, (S)-2-(tert-butoxy)-2-(4-(4,4-dimethylpiperidin-1-yl)-5-(4-(3-(4-fluorophenyl)propoxy)phenyl)-2,6-dimethylpyridin-3-yl)acetic acid], the pEC50 is 7.92.

`Cc1nc(C)c([C@H](OC(C)(C)C)C(=O)O)c(N2CCC(C)(C)CC2)c1-c1ccc(OCCC(C)(C)C)cc1` [Example 14, (S)-2-(tert-butoxy)-2-(5-(4-(3,3-dimethylbutoxy)phenyl)-4-(4,4-dimethylpiperidin-1-yl)-2,6-dimethylpyridin-3-yl)acetic acid] gave a pEC50 of 7.55.

As to `COc1ccc(CCOc2ccc(-c3c(C)nc(C)c([C@H](OC(C)(C)C)C(=O)O)c3N3CCC(C)(C)CC3)cc2)cc1` [Example 15, (S)-2-(tert-butoxy)-2-(4-(4,4-dimethylpiperidin-1-yl)-5-(4-(4-methoxyphenethoxy)phenyl)-2,6-dimethylpyridin-3-yl)acetic acid], the pEC50 is 8.40.

As for `Cc1nc(C)c([C@H](OC(C)(C)C)C(=O)O)c(N2CCC(C)(C)CC2)c1-c1ccc(O)cc1` [Example 16, (S)-2-(tert-Butoxy)-2-(4-(4,4-dimethylpiperidin-1-yl)-5-(4-hydroxyphenyl)-2,6-dimethylpyridin-3-yl)acetic acid], the pEC50 was 6.76.

As to `Cc1nc(C)c([C@H](OC(C)(C)C)C(=O)O)c(N2CCC(C)(C)CC2)c1-c1ccc(OCCc2ccc(C(N)=O)cc2)cc1` [Example 17, (S)-2-(tert-Butoxy)-2-(5-(4-(4-carbamoylphenethoxy)phenyl)-4-(4,4-dimethylpiperidin-1-yl)-2,6-dimethylpyridin-3-yl)acetic acid], the negative-log EC50 (pEC50) is 8.40.

On to `Cc1nc(C)c([C@H](OC(C)(C)C)C(=O)O)c(N2CCC(C)(C)CC2)c1-c1ccc(OCCc2ccc(C#N)cc2)cc1` [Example 18, (S)-2-(tert-Butoxy)-2-(5-(4-(4-cyanophenethoxy)phenyl)-4-(4,4-dimethylpiperidin-1-yl)-2,6-dimethylpyridin-3-yl)acetic acid], for which the pEC50 is 8.70.

`Cc1nc(C)c([C@H](OC(C)(C)C)C(=O)O)c(N2CCC(C)(C)CC2)c1-c1ccc(OCc2ccc(C(N)=O)cc2)cc1` [Example 19, (S)-2-(tert-Butoxy)-2-(5-(4-((4-carbamoylbenzyl)oxy)phenyl)-4-(4,4-dimethylpiperidin-1-yl)-2,6-dimethylpyridin-3-yl)acetic acid]: the negative-log EC50 (pEC50) is 7.92.

In turn, `Cc1nc(C)c([C@H](OC(C)(C)C)C(=O)O)c(N2CCC(C)(C)CC2)c1-c1ccc(OCc2ccc(C#N)cc2)cc1` [Example 20, (S)-2-(tert-Butoxy)-2-(5-(4-((4-cyanobenzyl)oxy)phenyl)-4-(4,4-dimethylpiperidin-1-yl)-2,6-dimethylpyridin-3-yl)acetic acid] gave a pEC50 of 8.52.

On to `Cc1nc(C)c([C@H](OC(C)(C)C)C(=O)O)c(N2CCC(C)(C)CC2)c1-c1ccc(OC(C)Cc2ccc(F)cc2)cc1` (stereo partly drawn) [Example 22, (2S)-2-(tert-Butoxy)-2-(4-(4,4-dimethylpiperidin-1-yl)-5-(4-((1-(4-fluorophenyl)propan-2-yl)oxy)phenyl)-2,6-dimethylpyridin-3-yl)acetic acid], for which the pEC50 is 8.15.

In turn, `Cc1nc(C)c([C@H](OC(C)(C)C)C(=O)O)c(N2CCC(C)(C)CC2)c1-c1ccc(OCCc2ccc(F)cc2F)cc1` [Example 23, (S)-2-(tert-butoxy)-2-(5-(4-(2,4-difluorophenethoxy)phenyl)-4-(4,4-dimethylpiperidin-1-yl)-2,6-dimethylpyridin-3-yl)acetic acid] had a pEC50 of 8.30. This pEC50 and that of the compound before are within 0.2 log units of each other.

The compound `Cc1nc(C)c([C@H](OC(C)(C)C)C(=O)O)c(N2CCC(C)(C)CC2)c1-c1ccc(OCCc2ccc(F)c(F)c2)cc1` [Example 24, (S)-2-(tert-butoxy)-2-(5-(4-(3,4-difluorophenethoxy)phenyl)-4-(4,4-dimethylpiperidin-1-yl)-2,6-dimethylpyridin-3-yl)acetic acid] had a negative-log EC50 (pEC50) of 8.52.

For `Cc1nc(C)c([C@H](OC(C)(C)C)C(=O)O)c(N2CCC(C)(C)CC2)c1-c1ccc(OCCc2cc(F)ccc2F)cc1` [Example 25, (S)-2-(tert-butoxy)-2-(5-(4-(2,5-difluorophenethoxy)phenyl)-4-(4,4-dimethylpiperidin-1-yl)-2,6-dimethylpyridin-3-yl)acetic acid], the pEC50 is 8.52.
